Assay results from patent US20130018062A1, “Pain therapy with metabolism blocked antifolates” (priority 2011, published 2013).

Tests used:
human tumor cell lines = conditions: all 49 human tumor cell lines evaluated at NCI-DTP program; cited from earlier work
SR (Leukemia) = experiment: Growth inhibition of human tumor cells in culture (NCI); type: cell-based; conditions: logarithmic value
Text: (§1) The preceding data collected at the National Cancer Institute summarize the ability of M-Trex to inhibit 50% of the growth of selected tumor cells in culture. The values are expressed as Log10 GI50 values all of which are lower than 10^−8M. In the same table a comparison is made of the respective values of TGI (Total Growth Inhibition) for M-Trex and MTX. […] In addition, the Log10 GI50 values of M-Trex was lower than −8.00 for the following cell lines: NSCLC, A549/ATCC and NCI H23; Colon Cancer, HCT 116, HCT 29 and SW 620; CNS Cancer, SF 268; Melanoma M 14 and UACC 62; Ovarian Cancer, OVCAR-8; Renal Cancer, ACHN, CAKI-1, SN 12C, and UO 31; Prostate Cancer, PC 3 and Breast cancer, MDA-MB-435 and MDA-N. The MG_MID value of MTX for all 49 human tumor cell lines evaluated at NCI-DTP program was −7.05. […] The tumors and sarcomas are solid while leukemia and lymphoma are liquid tumors.

K562 (Leukemia) = experiment: as above; type: cell-based; conditions: logarithmic value
Text: as §1

MOLT-4 (Leukemia) = experiment: as above; type: cell-based; conditions: logarithmic value
Text: as §1

CCRF-CEM (Leukemia) = experiment: as above; type: cell-based; conditions: logarithmic value
Text: as §1

SF 539 (CNS Cancer) = experiment: as above; type: cell-based; conditions: logarithmic value
Text: as §1

RPMI 8226 (Leukemia) = experiment: as above; type: cell-based; conditions: logarithmic value
Text: as §1

[1] = Toxicity (maximum tolerated dose, weight loss) in nude mice bearing HCT-8 xenograft; type: in vivo; conditions: i.v. push daily × 5 in nude mice
Allergic Rabbits = conditions: allergen induced; cited from earlier work
[2] = tested on: Human HCT-8 Colon Xenograft; experiment: Antitumor activity in nude mice bearing human HCT-8 colon xenograft (Example-4); type: in vivo; conditions: i.v. push daily × 5 at maximum tolerated dose (M-Trex 4.0, MTX 1.0 mg/kg/day)
Text: There are three general accepted methods for the evaluation of Pain in patients suffering from a number of diseases. They are Visual Analog Scale (VAS); Numeric rating Scale (NRS) and Verbal Categorical Rating Scale […]. Of these three assessment methods VAS is considered to be most reliable in a majority of cases to evaluate and quantify the magnitude of the perception of Pain. Clinical trials conducted by Castaneda and Nair used VAS to assess pain intensity in RA patients receiving 10-DAAM in one trial [G. Alarcon, O. Castaneda, W. J. Koopman, C. L. Krumdieck, and M. G. Nair. U.S. Pat. No. 5,030,634 (1991)] and M-Trex (CH-1504) in another trial conducted separately. Almost all cases of cancer Pain is due to tissue inflammation, tissue compression and tissue damage secondary to rapid proliferation of cells. Therefore any therapeutic intervention that shrinks proliferating tissues can bring about significant reduction in Pain. Shown below is the efficacy of M-Trex in shrinking human colon cancer transplanted and growing in nude mice.

[3] = tested on: patients with Rheumatoid Arthritis; conditions: compared with methotrexate; cited from earlier work

Structure (SMILES) | MG_MID value (human tumor cell lines) | TGI (Total Growth Inhibition) (SR (Leukemia)) | TGI (Total Growth Inhibition) (K562 (Leukemia)) | TGI (Total Growth Inhibition) (MOLT-4 (Leukemia)) | TGI (Total Growth Inhibition) (CCRF-CEM (Leukemia)) | TGI (Total Growth Inhibition) (SF 539 (CNS Cancer)) | TGI (Total Growth Inhibition) (RPMI 8226 (Leukemia)) | Maximum Tolerated dose [1] | Asthmatic Response Early (Allergic Rabbits) | Asthmatic Response Late (Allergic Rabbits) | BHR (Bronchial Hyper-Responsiveness) (Allergic Rabbits) | MTGI, Maximum Tumor Growth Inhibition (% of control) ([2]; nude mice, HCT-8 xenograft) [%] | Tumor doubling time, treated/control (%) ([2]; nude mice, HCT-8 xenograft) | TD, Tumor Doubling Time ([2]; control 2.6 ± 0.8 days) [days] | Pain reduction (in words) [3]
CN(Cc1cnc2nc(N)nc(N)c2n1)c1ccc(C(=O)N[C@@H](CCC(=O)O)C(=O)O)cc1 [MTX, methotrexate, reference compound] | −7.05 | −3.50 | −3.30 | −3.55 | −3.77 | −3.66 | −3.66 | MTX (1.0 mg/kg/day)^33 | 29 | 37 | 32 | 30.0 ± 9.0 | 176.92 | 4.6 ± 0.6 | 
Cn1c(=O)c2[nH]cnc2n(C)c1=O [Theophylline] |  |  |  |  |  |  |  |  | 45 | 49 | 39 |  |  |  | 
Nc1nc(N)c2nc(CCc3ccc(C(=O)N[C@@H](CCC(=O)O)C(=O)O)cc3)cnc2n1 [10-DAAM, 10-Deazaaminopterin] |  |  |  |  |  |  |  |  |  |  |  |  |  |  | very effective in reducing Pain
